Measured values taken from ChEMBL document CHEMBL1201862, “PubChem BioAssay data set” (2004).
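96-well plates; 48 h exposure; 5 concentrations. Endpoints by linear interpolation between flanking doses. Not reached: highest tested concentration assigned. Abbreviation: GI50, concentration required for 50% inhibition of growth.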 Activity calls are given as the source filed them. Rule as the data show it: active = GI50 up to about 1.1 µM and inactive = higher.

Legend:
Assay in all cases: NCI-60 cell line screen, 48 h
DLD-1 = tested on: DLD-1
XF498 = tested on: XF498
LXFL 529 = tested on: LXFL 529
DMS-273 = tested on: DMS-273
M19-MEL = tested on: M19-MEL
RXF 631 = tested on: RXF 631
KM-20L2 = tested on: KM-20L2
SNB-78 = tested on: SNB-78
DMS-114 = tested on: DMS-114

Measured: GI50

CC1=C(c2cc(C(=O)Nc3nccs3)nc(NC#N)n2)Sc2ccccc2N1
inactive: DLD-1 > 100 µM | XF498 > 100 µM | LXFL 529 > 100 µM | DMS-273 > 100 µM | M19-MEL > 100 µM | RXF 631 > 100 µM | KM-20L2 > 100 µM

COC(=O)CC(CC(=O)C(=O)OC)C(=O)OC (stereo unspecified)
inactive: DLD-1 > 100 µM | SNB-78 > 100 µM | LXFL 529 > 100 µM | KM-20L2 > 100 µM

Cc1ccc2nc(N)[nH]c(=O)c2c1Sc1ccncc1
inactive: DLD-1 > 100 µM | DMS-114 12.6 µM | XF498 22.8 µM | SNB-78 > 100 µM | LXFL 529 > 59.7 µM | DMS-273 37.2 µM | M19-MEL > 76 µM | KM-20L2 10 µM

Nc1ccc2ncc(Nc3ccc(Cl)c(Cl)c3)nc2c1
inactive: DLD-1 29.6 µM | DMS-114 13 µM | XF498 32.2 µM | SNB-78 26.9 µM | LXFL 529 29.6 µM | DMS-273 23.2 µM | M19-MEL 21.7 µM | KM-20L2 31.8 µM

Cc1ccc(-c2c(N)[n+]([O-])c3ccccc3[n+]2[O-])cc1
inactive: DLD-1 13.1 µM | XF498 3.71 µM | SNB-78 13 µM | LXFL 529 5.81 µM | DMS-273 13.4 µM | M19-MEL 11.7 µM | RXF 631 1.65 µM | KM-20L2 15 µM

CN(C(=N)c1ccccc1)c1ccccc1
inactive: DLD-1 > 100 µM | SNB-78 > 100 µM | LXFL 529 > 100 µM | DMS-273 > 100 µM | M19-MEL > 100 µM | KM-20L2 > 100 µM

COC(=O)C1=CC2OC13CC1CCC3(C2=O)C1(C)C (stereo unspecified)
inactive: DMS-114 7.29 µM | XF498 3.77 µM | SNB-78 14.4 µM | LXFL 529 4.49 µM | DMS-273 11.2 µM | M19-MEL 11.5 µM | RXF 631 13.9 µM | KM-20L2 13.3 µM

O=C(NNC(=O)c1cc(/C=C/c2cccc([N+](=O)[O-])c2)nc(S)n1)Nc1ccc(Cl)cc1
inactive: DLD-1 20.2 µM | DMS-114 30.8 µM | XF498 28.6 µM | SNB-78 > 100 µM | LXFL 529 42.3 µM | DMS-273 > 100 µM | M19-MEL 69 µM | KM-20L2 45.9 µM

C[N+]1(C)C/C(=C\C=C\c2ccccc2)C(=O)/C(=C/C=C/c2ccccc2)C1
inactive: DLD-1 16.1 µM | DMS-114 2.72 µM | XF498 8.49 µM | SNB-78 6.12 µM | LXFL 529 2.98 µM | DMS-273 1.62 µM | M19-MEL 7.06 µM | KM-20L2 14.7 µM

O=C(CSc1nnc(-c2ccc(/N=C\c3ccc(Cl)cc3)cc2)o1)Nc1ccccc1Cl
inactive: DMS-114 > 100 µM | XF498 > 100 µM | SNB-78 60.8 µM | LXFL 529 > 100 µM | DMS-273 > 100 µM | M19-MEL > 100 µM | KM-20L2 > 100 µM

COc1ccc2c(c1)[n+]([O-])c(-c1ccccc1)c(N)[n+]2[O-]
inactive: DLD-1 45.6 µM | DMS-114 25.4 µM | XF498 35 µM | SNB-78 44.8 µM | LXFL 529 30.5 µM | DMS-273 34.4 µM | M19-MEL 39.2 µM | KM-20L2 46 µM

O=C(CSc1nnc(Cc2ccccc2)o1)Nc1cccc(Cl)c1
inactive: DLD-1 > 100 µM | SNB-78 > 100 µM | LXFL 529 44.1 µM | DMS-273 83 µM | M19-MEL > 100 µM | KM-20L2 > 100 µM

NC(=O)NNC/C(Cl)=C(\Cl)C(=O)O
inactive: DLD-1 > 100 µM | DMS-114 > 100 µM | XF498 > 100 µM | SNB-78 > 100 µM | LXFL 529 > 100 µM | DMS-273 > 100 µM | M19-MEL > 100 µM | KM-20L2 > 100 µM

O=C(O)CCSC(=O)Nc1ccccc1Cl
inactive: DLD-1 > 100 µM | DMS-114 > 100 µM | XF498 > 100 µM | SNB-78 > 100 µM | LXFL 529 > 100 µM | DMS-273 > 100 µM | M19-MEL > 100 µM | RXF 631 > 100 µM | KM-20L2 > 100 µM

N#C/C(=C\c1ccc(O)c(O)c1)C(N)=S [TYRPHOSTIN 47]
inactive: DLD-1 64.6 µM | DMS-114 18.2 µM | XF498 > 100 µM | SNB-78 > 100 µM | LXFL 529 72.8 µM | DMS-273 > 79.1 µM | M19-MEL > 100 µM | KM-20L2 > 70.5 µM

CC1(c2ccccc2)CC(c2ccccc2)=NO1 (stereo unspecified)
inactive: DLD-1 > 100 µM | DMS-114 > 100 µM | SNB-78 > 100 µM | LXFL 529 > 100 µM | DMS-273 > 100 µM | M19-MEL > 100 µM

c1ccc(CCCC2Sc3cccc4cccc(c34)S2)cc1
inactive: DLD-1 > 100 µM | DMS-114 > 100 µM | XF498 > 100 µM | SNB-78 > 100 µM | LXFL 529 > 100 µM | DMS-273 > 100 µM | M19-MEL 79.1 µM | KM-20L2 54.7 µM

C/C(=N\NC(=O)c1ccccc1O)c1c(O)cc(C)oc1=O
inactive: DLD-1 49.8 µM | DMS-114 90.6 µM | SNB-78 > 100 µM | LXFL 529 85.5 µM | M19-MEL 83.4 µM | KM-20L2 > 100 µM

CCOC(=O)C(C(=O)OCC)=C1N[C@H](C(=O)OCC)CS1
inactive: DLD-1 > 100 µM | XF498 > 100 µM | SNB-78 > 100 µM | LXFL 529 > 100 µM | M19-MEL > 100 µM | RXF 631 > 100 µM | KM-20L2 > 100 µM

O=NN1CCN=C1c1ccc([N+](=O)[O-])cc1
inactive: DLD-1 > 100 µM | XF498 > 100 µM | SNB-78 > 100 µM | LXFL 529 > 100 µM | DMS-273 > 100 µM | M19-MEL > 100 µM | KM-20L2 > 100 µM

CN(C)CCNC(=O)c1cccc2[nH]c(-c3ccccc3)nc12
inactive: DLD-1 16.3 µM | DMS-114 17.3 µM | SNB-78 32.1 µM | DMS-273 14.5 µM | M19-MEL 19.4 µM | RXF 631 24.4 µM

Cn1c(=O)c2c3oc(=O)cc(O)c3c(=O)n3c4ccccc4n(c1=O)c23
inactive: DLD-1 35.8 µM | XF498 23.8 µM | SNB-78 37 µM | LXFL 529 34.8 µM | DMS-273 31.5 µM | M19-MEL 38.9 µM | RXF 631 46.6 µM

CC1OC(n2cc(I)c(=O)[nH]c2=O)C=CC1=O (stereo unspecified)
inactive: DLD-1 13.2 µM | DMS-114 17 µM | XF498 19.2 µM | SNB-78 14.7 µM | LXFL 529 10.8 µM | DMS-273 17.2 µM | M19-MEL 16.4 µM | KM-20L2 17 µM

C/C(CC(=O)Nc1ccc(NC(=O)C/C(C)=N\NC(N)=O)cc1)=N/NC(N)=O
inactive: DLD-1 > 45.2 µM | DMS-114 > 35.6 µM | XF498 > 92.3 µM | SNB-78 > 100 µM | LXFL 529 65.9 µM | DMS-273 > 37.1 µM | M19-MEL > 100 µM | RXF 631 33 µM | KM-20L2 > 100 µM

CC(C)C(N)=O [ISOBUTYRAMIDE]
inactive: DLD-1 > 5000 µM | DMS-114 > 5000 µM | SNB-78 > 5000 µM | LXFL 529 > 5000 µM | DMS-273 > 5000 µM | M19-MEL > 5000 µM

c1ccc(-c2sc(-c3ccccc3)c3c2C(c2ccccc2)c2c(-c4ccccc4)sc(-c4ccccc4)c2C3c2ccccc2)cc1 (stereo unspecified)
inactive: DLD-1 > 100 µM | DMS-114 > 100 µM | SNB-78 > 100 µM | LXFL 529 > 100 µM | DMS-273 > 100 µM | M19-MEL > 100 µM | KM-20L2 > 100 µM

COc1cccc2c1OC1Sc3ccccc3-c3nn(-c4ccccc4)c-2c31 (stereo unspecified)
inactive: DLD-1 > 100 µM | DMS-114 > 100 µM | XF498 > 100 µM | SNB-78 > 100 µM | LXFL 529 > 100 µM | DMS-273 > 100 µM | M19-MEL > 100 µM | RXF 631 > 100 µM | KM-20L2 > 100 µM

COC(=O)C1=CC2C(=O)OC1C1C(=O)NC(=O)C21 (stereo unspecified)
inactive: DLD-1 > 100 µM | DMS-114 > 100 µM | XF498 > 100 µM | SNB-78 > 100 µM | LXFL 529 > 100 µM | DMS-273 > 100 µM | M19-MEL > 100 µM | RXF 631 > 100 µM | KM-20L2 > 100 µM

COc1cc2c(cc1OC)/C(=C\c1ccccc1N)C(=O)OC2
inactive: DLD-1 15 µM | DMS-114 16.3 µM | LXFL 529 4.65 µM | DMS-273 10.7 µM | M19-MEL 15.2 µM | RXF 631 9.75 µM | KM-20L2 19.1 µM

Cc1cccc(C)c1N1C(=O)C(=O)C(c2nc3ccccc3s2)/C(=N/NC(=O)NN)C1=O (stereo unspecified)
inactive: DLD-1 > 100 µM | DMS-114 > 100 µM | XF498 > 100 µM | SNB-78 > 100 µM | LXFL 529 > 100 µM | DMS-273 > 100 µM | M19-MEL > 100 µM | KM-20L2 > 100 µM
